The record followed here is publication PMC12264943, “Identification of New Human P2X7 Antagonists Using Ligand- and Structure-Based Virtual Screening” (Journal of Chemical Information and Modeling, 2025).

“Also recorded” adds a separate entry of the source.

Holding throughout (format): cell-based
In test [1] the target is T1, hP2X7 (Homo sapiens, UniProt Q99572).
T1 construct: expressed in transfected cells; host or cells: HEK-293, stably transfected (gift of E. Adinolfi's group, Ferrara University)
T1 sequence (Q99572 1-595): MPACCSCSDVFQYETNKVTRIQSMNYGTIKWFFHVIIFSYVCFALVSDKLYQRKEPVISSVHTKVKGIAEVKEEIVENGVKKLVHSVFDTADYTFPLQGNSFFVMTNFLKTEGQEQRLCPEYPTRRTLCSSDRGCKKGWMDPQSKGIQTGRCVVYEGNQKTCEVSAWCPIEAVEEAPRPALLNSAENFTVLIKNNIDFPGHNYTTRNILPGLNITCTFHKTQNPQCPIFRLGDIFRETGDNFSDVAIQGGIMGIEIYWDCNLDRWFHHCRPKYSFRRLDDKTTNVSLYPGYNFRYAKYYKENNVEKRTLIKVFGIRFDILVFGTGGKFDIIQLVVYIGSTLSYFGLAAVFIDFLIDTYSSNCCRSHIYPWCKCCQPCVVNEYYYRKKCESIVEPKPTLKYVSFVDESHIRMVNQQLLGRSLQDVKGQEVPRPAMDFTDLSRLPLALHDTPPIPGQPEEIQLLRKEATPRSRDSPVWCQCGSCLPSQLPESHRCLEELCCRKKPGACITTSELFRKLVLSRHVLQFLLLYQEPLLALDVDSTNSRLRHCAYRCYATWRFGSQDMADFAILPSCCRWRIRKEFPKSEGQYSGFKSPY
The experiment in a line: Membrane Potential Red (MPR) dye assay, HEK-293 cells stably transfected with hP2X7. Conditions: 10 μM, 1 mM ATP, hP2X7 HEK-293. The method, then:
(§1) Astrocytoma 1321 N1 (established by Dr. Gaia Pasqualetto) and HEK-293 (kindly gifted by E. Adinolfi’s group, Ferrara University) both stably transfected with hP2X7, were used to assess the activity of the small molecules selected from the VS. Cells were maintained in DMEM:F12 (PanBiotech) supplemented with 10% FBS, 1% pen-strep, and 150 μg/mL G418 (PanBiotech).
(§2) Cells were plated as described for the YO-PRO 1 dye uptake assay. MPR dye (Molecular Devices) was prepared following the manufacturer’s protocol and diluted 1:10 in ECS-LD buffer. After washing with DPBS, cells were incubated with the dye for 30 min at 37 °C. Fluorescence changes (excitation: 525 nm; emission: 560 nm) were recorded using a Clariostar plate reader during ATP-induced membrane depolarization. Baseline fluorescence was recorded for 5 cycles, and ATP was added via an automated injector (10 μL). Membrane depolarization was quantified as the ratio of the maximal fluorescence change over baseline intensity (Δ(F max–F0)/F0)).
4 Evaluation of compound 2 and 9 analogue activity using YO-PRO 1 and MPR assays. The activity of compound 2 (A and B) and 9 (C and D) analogues was evaluated in YO-PRO 1 (A and C) and MPR (B and D) assays. The compounds were tested at 10 μM and preincubated for either 20 (YO-PRO 1) or 30 min (MPR). The baseline was recorded for 5 cycles before ATP treatment (1 mM). Fluorescence was recorded for 25 (YO-PRO 1) or 5 min (MPR). The data were normalized by setting as 100% for the fluorescence measured from hP2X7 HEK-293 cells incubated with vehicle (0.1% DMSO) and treated with 1 mM ATP and 0% for the fluorescence recorded by the cells not treated with ATP. The data shown correspond to three independent biological replicates (3 technical replicates per experiment; error bars represent the SEM from the mean values of each biological replicate (n = 3)). The statistical analysis was performed with one-way Anova using Dunnett’s function (P**** < 0.0001; P*** < 0.0003; P** < 0.002; P* < 0.02).

The target of test [2] is T1, hP2X7. The experiment in a line: Membrane Potential Red (MPR) dye assay, 1321 N1 cells stably transfected with hP2X7. The following applies: compound 10 μM, 700 μM ATP.
Test [3] addresses T1, hP2X7. The test is described as above. The method, then: as §1, §2
2 Initial screening assays to identify hit compounds. (A) The compounds were screened at 30 μM in the YO-PRO 1 dye uptake using 1321 N1 cells stably transfected with hP2X7. Compound activity was evaluated along a time of 20 min (75 s per cycle) after ATP addition (700 μM). The fluorescence intensity (FI) values of the first 10 cycles were considered for assessing their ability to inhibit hP2X7. Compound responses were normalized to the fluorescent signal recorded on 0.3% DMSO cells treated with 700 μM ATP of each plate. […] (B) Compounds screened at 10 μM using MPR using 1321 N1 cells stably transfected with hP2X7. The compound activity was evaluated for 5 min after ATP addition (15 s per cycle). The fluorescence intensity recorded in the first cycles (before reaching a plateau response) was considered for assessing the small molecule’s ability to inhibit hP2X7. Compound responses were normalized to the fluorescence signal recorded on 0.1% DMSO cells treated with 700 μM ATP of each plate. […] One-way ANOVA and Dunnet test were used for statistical analysis (****P < 0.0001), (*P < 0.02). […]

The target of test [4] is T1, hP2X7. Put plainly: Membrane potential assay with the blue dye (assay optimization). Conditions: read-out: ATP EC50. From the text:
The use of two or more complementary assays for assessing P2X7 modulator activity has been previously applied to help identify false positives as macropore formation is also linked to P2X2 and P2X4. , As P2X receptors are ion channels, they are probably best studied using electrophysiology techniques such as single-cell patch clamp, but these techniques can be laborious when testing libraries of compounds.

On to `O=C(CSc1ccccc1C(=O)Nc1ccnn1Cc1cccnc1)Nc1ccc2c(c1)OCO2` [Compound 9], for which, on hP2X7 [1], the “activity in MPR assay” value was “neither compound 9 nor its analogues significantly affected the membrane depolarization; also recorded: lack of inhibition”. Besides, the “activity in MPR screen, hP2X7-induced membrane depolarization” value at hP2X7 [2] was “active; also recorded: statistically inhibited”. Also, the “statistically significant inhibition, % of control, initial MPR screen” value at hP2X7 [3] (compound 10 μM, 700 μM ATP) was 65 % of control.
The EC50 is the midpoint of the concentration-response curve. Take `Nc1ncnc2c1ncn2[C@@H]1O[C@H](COP(=O)(O)OP(=O)(O)OP(=O)(O)O)[C@@H](O)[C@H]1O` [ATP, reference compound]: the EC50 on hP2X7 [4] was 2050 µM; on hP2X7 [3] (MPR assay, red dye, 1321 N1 hP2X7 cells, one biological replicate, read-out: ATP EC50), 679 µM.
Take `O=C(NCCc1ccccc1)NC(Cc1ccc2c(c1)OCO2)Cc1ccc2c(c1)OCO2` [Compound 2]: the “activity in MPR screen, hP2X7-induced membrane depolarization” value at hP2X7 [2] was “active; also recorded: statistically inhibited”.
